# Data reported in patent publication US10770169B2, “Method of providing a treatment to a subject based on a dynamic pathway map” (THE REGENTS OF THE UNIVERSITY OF CALIFORNIA, priority 2010, dated 2020).
# Where two headings read alike, the source gives them in different places.
# System: panel of 55 breast cancer cell lines
# Experiment: Cell growth inhibition assay (Cell Titer Glo, 72 h, 9 doses; GI50, TGI, LC50)
# Format: cell-based, human
# Conditions: Homo sapiens, read-out: GI50 (converted)
smiles,measurement,setting,value
CC[C@@]1(O)C(=O)OCc2c1cc1n(c2=O)Cc2cc3c(CN(C)C)c(O)ccc3nc2-1 [Topotecan],GI50,"AU565, AU565 cell line, censored GI50 values",18.6 nM
same,GI50,"AU565, cell line AU565",18.6 nM
same,GI50,"BT-474, BT474 cell line, censored GI50 values",2510 nM
same,GI50,"BT-474, cell line BT474",2510 nM
same,GI50,"BT-483, BT483 cell line, censored GI50 values",16.2 nM
same,GI50,"BT-483, cell line BT483",16.2 nM
same,GI50,"CAMA-1, CAMA1 cell line, censored GI50 values",398 nM
same,GI50,"CAMA-1, cell line CAMA1",398 nM
same,GI50,"HCC38, HCC38 cell line, censored GI50 values",3.72 nM
same,GI50,"HCC38, cell line HCC38",3.72 nM
same,GI50,"HCC70, HCC70 cell line, censored GI50 values",19100 nM
same,GI50,"HCC70, cell line HCC70",19100 nM
same,GI50,"HCC202, HCC202 cell line, censored GI50 values",759 nM
same,GI50,"HCC202, cell line HCC202",759 nM
same,GI50,"HCC1143, HCC1143 cell line, censored GI50 values",257 nM
same,GI50,"HCC1143, cell line HCC1143",257 nM
same,GI50,"HCC1187, HCC1187 cell line, censored GI50 values",309 nM
same,GI50,"HCC1187, cell line HCC1187",309 nM
same,GI50,"HCC1395, HCC1395 cell line, censored GI50 values",15.1 nM
same,GI50,"HCC1395, cell line HCC1395",15.1 nM
same,GI50,"HCC1419, HCC1419 cell line, censored GI50 values",363 nM
same,GI50,"HCC1419, cell line HCC1419",363 nM
same,GI50,"HCC1428, HCC1428 cell line, censored GI50 values",447 nM
same,GI50,"HCC1428, cell line HCC1428",447 nM
same,GI50,"HCC1500, HCC1500 cell line, censored GI50 values",14.5 nM
same,GI50,"HCC1500, cell line HCC1500",14.5 nM
same,GI50,"HCC1806, HCC1806 cell line, censored GI50 values",20.4 nM
same,GI50,"HCC1806, cell line HCC1806",20.4 nM
same,GI50,"HCC1954, HCC1954 cell line, censored GI50 values",302 nM
same,GI50,"HCC1954, cell line HCC1954",302 nM
same,GI50,"HCC2185 cell line, censored GI50 values",40.7 nM
same,GI50,"HCC3153 cell line, censored GI50 values",209 nM
same,GI50,"LY2 cell line, censored GI50 values",257 nM
same,GI50,"MCF7, MCF7 cell line, censored GI50 values",1320 nM
same,GI50,"MCF7, cell line MCF7",1320 nM
same,GI50,"MDA-MB-134-VI, MDAMB134VI cell line, censored GI50 values",115 nM
same,GI50,"MDA-MB-157, MDAMB157 cell line, censored GI50 values",398 nM
same,GI50,"MDA-MB-157, cell line MDAMB157",398 nM
same,GI50,"MDA-MB-175-VII, MDAMB175VII cell line, censored GI50 values",2880 nM
same,GI50,"MDA-MB-231, MDAMB231 cell line, censored GI50 values",1170 nM
same,GI50,"MDA-MB-231, cell line MDAMB231",1170 nM
same,GI50,"MDA-MB-361, MDAMB361 cell line, censored GI50 values",525 nM
same,GI50,"MDA-MB-361, cell line MDAMB361",525 nM
same,GI50,"MDA-MB-415, MDAMB415 cell line, censored GI50 values",191 nM
same,GI50,"MDA-MB-415, cell line MDAMB415",191 nM
same,GI50,"MDA-MB-436, MDAMB436 cell line, censored GI50 values",30.2 nM
same,GI50,"MDA-MB-436, cell line MDAMB436",30.2 nM
same,GI50,"MDA-MB-453, MDAMB453 cell line, censored GI50 values",85.1 nM
same,GI50,"MDA-MB-453, cell line MDAMB453",85.1 nM
same,GI50,"MDA-MB-468, MDAMB468 cell line, censored GI50 values",45.7 nM
same,GI50,"MDA-MB-468, cell line MDAMB468",45.7 nM
same,GI50,"SK-BR-3, SKBR3 cell line, censored GI50 values",11.2 nM
same,GI50,"SK-BR-3, cell line SKBR3",11.2 nM
same,GI50,"SUM44PE cell line, censored GI50 values",372 nM
same,GI50,"SUM52PE, SUM52PE cell line, censored GI50 values",8.32 nM
same,GI50,"SUM52PE, cell line SUM52PE",8.32 nM
same,GI50,"SUM185PE, SUM185PE cell line, censored GI50 values",63.1 nM
same,GI50,"SUM185PE, cell line SUM185PE",63.1 nM
same,GI50,"SUM1315MO2, SUM1315MO2 cell line, censored GI50 values",8.32 nM
same,GI50,"SUM-159-PT, SUM159PT cell line, censored GI50 values",741 nM
same,GI50,"SUM-159-PT, cell line SUM159PT",741 nM
same,GI50,"UACC-812, UACC812 cell line, censored GI50 values",60.3 nM
same,GI50,"UACC-812, cell line UACC812",60.3 nM
same,GI50,"UACC-893, UACC893 cell line, censored GI50 values",347 nM
same,GI50,"UACC-893, cell line UACC893",347 nM
same,GI50,"ZR-75-1, ZR751 cell line, censored GI50 values",40.7 nM
same,GI50,"ZR-75-1, cell line ZR751",40.7 nM
same,GI50,"ZR-75B, ZR75B cell line, censored GI50 values",63.1 nM
same,GI50,"ZR-75B, cell line ZR75B",63.1 nM
same,GI50,cell line HCC2185,40.7 nM
same,GI50,cell line HCC3153,209 nM
same,GI50,cell line LY2,257 nM
same,GI50,cell line MDAMB134V,115 nM
same,GI50,cell line MDAMB175V,2880 nM
same,GI50,cell line SUM44PE,372 nM
same,GI50,cell line SUM1315MO,8.32 nM
